Source: US20080280996A1, “Use of Carophyllenes in the Manufacture of Medicaments and Treatment of Bodily Conditions of Inflammation and Inflammatory Pain” (priority 2004, published 2008)

What was measured:
Assay type in all cases: in vivo
[1] = system: arachidonic acid ear oedema; test: Arachidonic acid oedema in mouse ear; conditions: mice, arachidonic acid 2 mg/ear; topical ointment 0.025 to 0.2% caryophyllene applied 60 minutes before
Procedure: The ear oedema in the test below was measured according to Calixto et. al. in the publication Prostaglandins, 5: 515-526, 1991, with minor modifications. Male 25 g-35 g mice, in a first group, were topically applied, in the inner surface of the ears, an ointment comprising a range from 0.025 to 0.2% alpha-humulene or trans-caryophyllene. In the positive control group, the animals were topically applied 0.05 mg of phenidone per ear. After 60 minutes, the animals received 20 μl of arachidonic acid (2 mg/ear), dissolved in acetone, in the inner surface of the right ear. The oedema was measured using a digital micrometer, and the responses were expressed as μm, the difference between the ear thickness before and after the application of arachidonic acid. The responses of the animals treated with caryophyllenes were compared to those observed in the control group animals, treated with base ointment. Graphs 6A and 6B below compare the inhibition of the volume of the oedema by topic administration of alpha-humulene (6A) and trans-caryophyllene (6B). Oedema volume measurement was performed after application of 0.025%, 0.05%, 0.1, and 0.2% caryophyllene content ointment, compared to the oedema volume caused by the application of phenidone and arachidonic acid (C). Each point represents the average of 5 animals, and the vertical bars the mean standard error deviation.

PAF-induced oedema = test: Platelet aggregation factor (PAF) oedema in mouse paw; conditions: mice, PAF 3 nmol/paw intraplantar; 50 mg/kg orally 1 h before; 30 to 120 min
Procedure: The test used below is described by Cunha et. al. in the publication Life Sci. 70:159-169, 2001. Male 25 g-35 g mice were slightly sedated with ether and were injected 50 μl saline containing platelet aggregation factor (PAF, 3 nmol/paw), intraplantar, in the right paw. The left paw received the same volume of saline and was taken as negative control. The swelling was measured with a plethysmometer (manufacturer: Ugo Basile, Italy) along various time intervals after the injection of the phlogistic agent. The difference between the volumes of the right and the left paw were quantified (in ml) and taken as an index of oedema. One hour before the test the animals were systemically treated (orally) with 50 mg/kg of alpha-humulene or trans-caryophyllene. Graph 5 below compares the inhibition of the volume of the oedema by administration of alpha-humulene (SA) and trans-caryophyllene (5B). Oedema volume measurement time intervals were 30, 45, 60, and 120 min. Each point represents the average of 5 animals, and the vertical bars the mean standard deviation.

PGE2 = test: Levels of PGE2 in carrageenin-injected rat paw exsudate (Elisa); conditions: 50 mg/kg orally 60 minutes before carrageenin 300 μg/paw, paw exsudate after 180 minutes
Procedure: The test used below is described by Pinheiro et. al. in the publication Inflamm. Res. 51: 603-610, 2002, with minor modifications. Male 160-180 g rats were orally given 50 mg/kg of trans-caryophyllene. Animals treated with 0.9% (0.1 ml/10 g) saline were used as control. Another group of animals was treated with 0.5 mg/kg dexamethasone, subcutaneously, 4 hours before the test, and used as positive control. After 60 minutes, the animals received intraplantar injections of 100 μl of carrageenin (300 μg/paw) and were sacrificed after 180 minutes. The exsudate of the paws was collected by dialysis with the help of two polyethylene canulas, and was utilized for the quantification of PGE2, with an Elisa kit, according to the manufacturer's instructions (R & D Systems®, USA). The tests were performed in duplicate, and repeated three times. The answers are expressed in pg/mg of tissue. Graph 9 below (each result represents the average of 5 animals, and the vertical bars the mean standard error deviation) compares inhibition of the PGE2 level growth induced by carrageenin in the paws of rats, by administration of alpha-humulene and trans-caryophyllene, compared to the effect obtained by treatment with dexomethasone.

[2] = system: bradykinin-induced paw oedema; test: Bradykinin oedema in mouse paw; conditions: mice, bradykinin 3 nmol/paw intraplantar, captopril pre-treatment; 50 mg/kg orally 1 h before; 10 min to 48 h
Procedure: The test used below is described by Cunha et. al. in the publication Life Sci. 70:159-169, 2001. Male 25 g-35 g mice were slightly sedated with ether and were injected 50 μl saline containing bradykinin (BK, 3 nmol/paw), intraplantar, in the right paw. The left paw received the same volume of saline and was taken as negative control. The swelling was measured with a plethysmometer (manufacturer: Ugo Basile, Italy) along various time points intervals after the injection of the phlogistic agent. The difference between the volumes of the right and the left paw were quantified (in ml) and taken as an index of oedema. One hour before the test the animals were systemically treated (orally) with 50 mg/kg of alpha-humulene or with trans-caryophyllene. The animals were pre-treated with 5 mg/kg of captopril, injected subcutaneously, 1 hour before the test, in order to avoid degradation of […]. Graphs 3A and 3B below compare the inhibition of the volume of the oedema by administration of alpha-humulene (3A) or trans-caryophyllene (3B). Oedema volume measurement time intervals were 10, 20, 30, 60, and 120 min, 24 h and 48 h. Each point represents the average of 5 animals, and the vertical bars the mean standard error deviation.

SMILES | arachidonic acid ear oedema formation [1] | PAF-induced oedema formation (PAF-induced oedema) | growth of PGE2 levels induced by carrageenin in the paws of rats (PGE2) | bradykinin-induced paw oedema [2]
C/C1=C\CC/C(C)=C/CC(C)(C)/C=C/C1 [alpha-humulene] | markedly reduced oedema formation, in a dose-dependent manner | markedly reduced PAF-induced oedema formation | markedly inhibited the growth of PGE2 levels | markedly reduced bradykinin-induced paw oedema
C=C1CC/C=C(\C)CC[C@@H]2[C@@H]1CC2(C)C [trans-caryophyllene] | markedly reduced oedema formation, in a dose-dependent manner | markedly reduced PAF-induced oedema formation | markedly inhibited the growth of PGE2 levels | markedly reduced bradykinin-induced paw oedema
